Test results published in BindingDB's records for doi:10.1021/jm00177a009 (1980).

Key:
DNA polymerase beta = DNA polymerase beta (Mus musculus, UniProt Q8K409); assay: ChEBML_50773
Excerpt: Ability to inhibit mouse beta DNA polymerase

Gag-Pol polyprotein = Gag-Pol polyprotein (Woolly monkey sarcoma virus, UniProt P03359); assay: ChEBML_196792
Excerpt: Ability to inhibit simian sarcoma virus reverse transcriptase

Sequence of Gag-Pol polyprotein (P03359 642-1310 limits assumed): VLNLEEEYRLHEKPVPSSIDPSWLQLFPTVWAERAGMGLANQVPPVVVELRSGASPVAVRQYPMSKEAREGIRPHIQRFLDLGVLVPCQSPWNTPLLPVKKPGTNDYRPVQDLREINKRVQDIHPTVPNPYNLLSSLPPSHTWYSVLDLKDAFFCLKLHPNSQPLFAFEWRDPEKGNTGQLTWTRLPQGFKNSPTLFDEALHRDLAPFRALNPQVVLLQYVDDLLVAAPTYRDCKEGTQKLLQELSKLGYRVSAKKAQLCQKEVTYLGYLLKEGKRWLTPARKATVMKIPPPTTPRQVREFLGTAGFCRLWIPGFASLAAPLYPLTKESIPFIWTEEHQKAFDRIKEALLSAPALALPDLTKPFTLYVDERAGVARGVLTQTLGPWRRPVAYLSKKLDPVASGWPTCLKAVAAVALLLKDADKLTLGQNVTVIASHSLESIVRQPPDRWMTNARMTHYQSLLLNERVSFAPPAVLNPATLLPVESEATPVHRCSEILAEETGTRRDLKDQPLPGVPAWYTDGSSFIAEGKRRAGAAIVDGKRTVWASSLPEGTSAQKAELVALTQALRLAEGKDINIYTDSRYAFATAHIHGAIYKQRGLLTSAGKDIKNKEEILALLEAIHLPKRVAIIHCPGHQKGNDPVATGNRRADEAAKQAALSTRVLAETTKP

IC50 (DNA polymerase beta) | IC50 (Gag-Pol polyprotein) | SMILES
370 µM |  | COC1/C=C/OC2(C)Oc3c(C)c(O)c4c(O)c(c(O)cc4c3C2=O)NC(=O)/C(C)=C\C=C\C(C)C(O)C(C)C(O)C(C)C(OC(C)=O)C1C (stereo not given) [2,15,17,26,29-pentahydroxy-11-methoxy-3,7,12,14,16,18,22-heptamethyl-6,23-dioxo-8,30-dioxa-24-azatetracyclo[23.3.1.14,7.05,28]triaconta-1(28),2,4,9,19,21,25(29),26-octaen-13-yl acetate]
1100 µM | 370 µM | COC1/C=C/OC2(C)Oc3c(C)c(O)c4c(O)c(ccc4c3C2=O)NC(=O)/C(C)=C\C=C\C(C)C(O)C(C)C(O)C(C)C(OC(C)=O)C1C (stereo not given) [2,15,17,29-tetrahydroxy-11-methoxy-3,7,12,14,16,18,22-heptamethyl-6,23-dioxo-8,30-dioxa-24-azatetracyclo[23.3.1.14,7.05,28]triaconta-1(28),2,4,9,19,21,25(29),26-octaen-13-yl acetate]
150 µM |  | COC1/C=C/OC2(C)Oc3c(C)c(O)c4c(O)c(c(/C=N/N5CCN(C)CC5)cc4c3C2=O)NC(=O)/C(C)=C\C=C\C(C)C(O)C(C)C(O)C(C)C(OC(C)=O)C1C (stereo not given) [2,15,17,29-tetrahydroxy-11-methoxy-3,7,12,14,16,18,22-heptamethyl-26-(4-methylhexahydro-1-pyrazinyliminomethyl)-6,23-dioxo-8,30-dioxa-24-azatetracyclo[23.3.1.14,7.05,28]triaconta-1(28),2,4,9,19,21,25(29),26-octaen-13-yl acetate]
240 µM |  | COC1/C=C/OC2(C)Oc3c(C)c(O)c4c(O)c(c(/C=N/N5CCCC5)cc4c3C2=O)NC(=O)/C(C)=C\C=C\C(C)C(O)C(C)C(O)C(C)C(OC(C)=O)C1C (stereo not given) [2,15,17,29-tetrahydroxy-11-methoxy-3,7,12,14,16,18,22-heptamethyl-26-Methylene-pyrrolidin-1-yl-amino-6,23-dioxo-8,30-dioxa-24-azatetracyclo[23.3.1.14,7.05,28]triaconta-1(28),2,4,9,19,21,25(29),26-octaen-13-yl acetate]
120 µM |  | COc1cccc(CN2CCN(/N=C/c3cc4c5c6c(C)c(O)c4c(O)c3NC(=O)/C(C)=C\C=C\C(C)C(O)C(C)C(O)C(C)C(OC(C)=O)C(C)C(OC)/C=C/OC(C)(O6)C5=O)CC2)c1 (stereo not given) [2,15,17,29-tetrahydroxy-11-methoxy-3,7,12,14,16,18,22-heptamethyl-26-[4-(3-Methoxy-benzyl)-piperazin-1-yl]-methylene-amino-6,23-dioxo-8,30-dioxa-24-azatetracyclo[23.3.1.14,7.05,28]triaconta-1(28),2,4,9,19,21,25(29),26-octaen-13-yl acetate]
1100 µM |  | CCN(CC)Cc1cc2c3c4c(C)c(O)c2c(O)c1NC(=O)/C(C)=C\C=C\C(C)C(O)C(C)C(O)C(C)C(OC(C)=O)C(C)C(OC)/C=C/OC(C)(O4)C3=O (stereo not given) [26-diethylaminomethyl-2,15,17,29-tetrahydroxy-11-methoxy-3,7,12,14,16,18,22-heptamethyl-6,23-dioxo-8,30-dioxa-24-azatetracyclo[23.3.1.14,7.05,28]triaconta-1(28),2,4,9,19,21,25(29),26-octaen-13-yl acetate]
104 µM |  | COC1/C=C/OC2(C)Oc3c(C)c(O)c4c(O)c(c(C=O)cc4c3C2=O)NC(=O)/C(C)=C\C=C\C(C)C(O)C(C)C(O)C(C)C(OC(C)=O)C1C (stereo not given) [26-formyl-2,15,17,29-tetrahydroxy-11-methoxy-3,7,12,14,16,18,22-heptamethyl-6,23-dioxo-8,30-dioxa-24-azatetracyclo[23.3.1.14,7.05,28]triaconta-1(28),2,4,9,19,21,25(29),26-octaen-13-yl acetate]
4200 µM | 1450 µM | COC1/C=C/OC2(C)Oc3c(C)c(O)c4c(O)c(c(CN5CCNCC5)cc4c3C2=O)NC(=O)/C(C)=C\C=C\C(C)C(O)C(C)C(O)C(C)C(OC(C)=O)C1C (stereo not given) [26-hexahydro-1-pyrazinylmethyl-2,15,17,29-tetrahydroxy-11-methoxy-3,7,12,14,16,18,22-heptamethyl-6,23-dioxo-8,30-dioxa-24-azatetracyclo[23.3.1.14,7.05,28]triaconta-1(28),2,4,9,19,21,25(29),26-octaen-13-yl acetate]
